Broadly, the melting point is the temperature, or range, at which the solid turns liquid. What is called CC50 is the concentration giving 50% cytotoxicity. Higher therefore signals lower toxicity to the cells.

Consider 19 compounds from patent US11447501B2, “Biphenyl-containing diarylpyrimido compounds, pharmaceutically-acceptable salts thereof, composition and preparation thereof” (Fudan University, priority 2019, dated 2022).

The structures appear in SMILES notation.

Assay in one data set: not given
Conditions: not given
For `Cc1cc(C#N)ccc1-c1ccc(Oc2nc(Nc3ccc(C#N)cc3)nc3ccsc23)cc1C` [Example 17], the melting point was in the range of 274.3 to 275.8 °C.

Regarding `N#Cc1ccc(Nc2nc(Oc3ccc(-c4ccc(C#N)c(F)c4)cc3F)c3sccc3n2)cc1` [Example 8], the melting point is more than 300 °C. `N#Cc1ccc(Nc2nc(Oc3ccc(-c4ccc(C#N)cc4Cl)cc3)c3sccc3n2)cc1` [Example 3] returned a melting point of more than 300 °C.

Compound `Cc1cc(-c2ccc(C#N)cc2F)ccc1Oc1nc(Nc2ccc(C#N)cc2)nc2ccsc12` [Example 9] displayed a melting point of 268.5 to 271 °C. The same measure, in the same setting: to `Cc1cc(C#N)ccc1-c1ccc(Oc2nc(Nc3ccc(C#N)cc3)nc3ccsc23)c(F)c1` [Example 13] belongs 275.2 to 276.8 °C; to `Cc1cc(-c2ccc(Oc3nc(Nc4ccc(C#N)cc4)nc4ccsc34)c(F)c2)ccc1C#N` [Example 14], 252.5 to 254.2 °C; to `N#Cc1ccc(Nc2nc(Oc3ccc(-c4ccc(C#N)c(Cl)c4)cc3)c3sccc3n2)cc1` [Example 4], 246.3 to 247.7 °C. Same read-out and setting: the same measure for `N#Cc1ccc(Nc2nc(Oc3ccc(-c4ccc(C#N)cc4F)cc3F)c3sccc3n2)cc1` [Example 7]: 295.3 to 297 °C; for `Cc1cc(-c2ccc(Oc3nc(Nc4ccc(C#N)cc4)nc4ccsc34)cc2C)ccc1C#N` [Example 18]: 264.9 to 266.2 °C. Compound `Cc1cc(-c2ccc(C#N)c(F)c2)ccc1Oc1nc(Nc2ccc(C#N)cc2)nc2ccsc12` [Example 10] yielded a melting point of 299.3 to 300.2 °C.

For the compound `N#Cc1ccc(Nc2nc(Oc3ccc(-c4ccc(C#N)c(F)c4)cc3)c3sccc3n2)cc1` [Example 2], the melting point is 258.8 to 260.3 °C.

`Cc1cc(-c2ccc(Oc3nc(Nc4ccc(C#N)cc4)nc4ccsc34)c(C)c2)ccc1C#N` [Example 16]: the melting point lay within 259.4 to 261.1 °C. The same measure, in the same setting: the same measure for `N#Cc1ccc(Nc2nc(Oc3ccc(-c4ccc(C#N)cc4F)cc3)c3sccc3n2)cc1` [Example 1]: 272.5 to 273.6 °C; for `Cc1cc(-c2ccc(Oc3nc(Nc4ccc(C#N)cc4)nc4ccsc34)cc2)ccc1C#N` [Example 6]: 256.5 to 257.9 °C; for `Cc1cc(C#N)ccc1-c1ccc(Oc2nc(Nc3ccc(C#N)cc3)nc3ccsc23)cc1` [Example 5]: 278.4 to 279.5 °C. On the same count and under the same terms, to `Cc1cc(-c2ccc(C#N)cc2C)ccc1Oc1nc(Nc2ccc(C#N)cc2)nc2ccsc12` [Example 15] belongs 262.4 to 263.7 °C.

The next data set is described as follows: Cytotoxicity in uninfected MT-4 cells (MTT assay). The class given is cell-based. The following applies: human, uninfected MT-4 cells; concentration that reduces normal uninfected MT-4 cell viability by 50%. (Formazan colour is commonly taken as a measure of viable cells.)
In turn, `Cc1cc(C#N)cc(C)c1Oc1nc(Nc2ccc(C#N)cc2)nc(N)c1Br` [ETR, Etravirine] yielded a CC50 at 7 d of more than 4.61 µM. In turn, `Cc1ccnc2c1NC(=O)c1cccnc1N2C1CC1` [NVP, Nevirapine] had a 50% cytotoxic concentration (CC50) at 7 d of more than 15 µM.

The data set is the same for the next values; noted with them: human; concentration that reduces normal uninfected MT-4 cell viability by 50%.
In turn, `O=C1Nc2ccc(Cl)cc2[C@@](C#CC2CC2)(C(F)(F)F)O1` [EFV, Efavirenz] showed a CC50 at 7 d of more than 6.34 µM.

Assay in another data set: not given
The following applies: clinical use; cited from earlier work.
For the compound `Cc1cc(C#N)cc(C)c1Oc1nc(Nc2ccc(C#N)cc2)nc(N)c1Br` [ETR, Etravirine], the response rate is given as 36.5%.
